Holding throughout (format): biochemical
One assay has as its target T1, PKCδ (Homo sapiens, UniProt Q05655).
T1 construct: gene PRKCD; recombinant PKCδ
The assay is described as follows: in vitro radiometric PKC kinase assay.

The target in the next assay is T2, PKCα (Homo sapiens, UniProt P17252).
T2 construct: gene PRKCA; recombinant PKCα

The target of the next assay is T3, PKD2 (Homo sapiens, UniProt Q9BZL6).
T3 construct: gene PRKD2; recombinant human PKD2
T3 sequence (Q9BZL6 1-878): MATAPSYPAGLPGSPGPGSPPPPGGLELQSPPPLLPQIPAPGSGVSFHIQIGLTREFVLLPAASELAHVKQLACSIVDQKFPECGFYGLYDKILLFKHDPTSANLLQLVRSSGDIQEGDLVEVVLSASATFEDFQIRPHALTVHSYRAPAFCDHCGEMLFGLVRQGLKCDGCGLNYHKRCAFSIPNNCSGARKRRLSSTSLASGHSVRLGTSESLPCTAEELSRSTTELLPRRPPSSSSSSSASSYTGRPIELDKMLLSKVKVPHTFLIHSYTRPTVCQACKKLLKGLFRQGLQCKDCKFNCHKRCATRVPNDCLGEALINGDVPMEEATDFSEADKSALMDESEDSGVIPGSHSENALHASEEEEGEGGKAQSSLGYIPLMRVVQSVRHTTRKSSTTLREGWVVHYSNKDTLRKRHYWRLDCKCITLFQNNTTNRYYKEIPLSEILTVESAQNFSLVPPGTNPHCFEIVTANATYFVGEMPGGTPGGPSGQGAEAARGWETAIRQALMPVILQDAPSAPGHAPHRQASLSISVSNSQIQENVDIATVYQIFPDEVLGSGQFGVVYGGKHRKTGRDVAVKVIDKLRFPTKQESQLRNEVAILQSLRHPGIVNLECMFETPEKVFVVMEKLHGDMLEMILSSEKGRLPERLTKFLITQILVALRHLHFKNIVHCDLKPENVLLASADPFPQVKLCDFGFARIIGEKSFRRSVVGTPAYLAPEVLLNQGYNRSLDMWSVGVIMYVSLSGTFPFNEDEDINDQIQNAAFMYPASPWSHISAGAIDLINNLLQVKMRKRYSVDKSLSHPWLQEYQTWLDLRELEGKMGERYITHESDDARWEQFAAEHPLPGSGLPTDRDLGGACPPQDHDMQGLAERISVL
The assay can be described thus: in vitro radiometric kinase assay, 10-point curve.

The target in another assay is T4, protein kinase D1 (PKD1) (Homo sapiens, UniProt Q15139).
T4 construct: gene PRKD1; GST-tagged recombinant human PKD1
T4 sequence (Q15139 1-912): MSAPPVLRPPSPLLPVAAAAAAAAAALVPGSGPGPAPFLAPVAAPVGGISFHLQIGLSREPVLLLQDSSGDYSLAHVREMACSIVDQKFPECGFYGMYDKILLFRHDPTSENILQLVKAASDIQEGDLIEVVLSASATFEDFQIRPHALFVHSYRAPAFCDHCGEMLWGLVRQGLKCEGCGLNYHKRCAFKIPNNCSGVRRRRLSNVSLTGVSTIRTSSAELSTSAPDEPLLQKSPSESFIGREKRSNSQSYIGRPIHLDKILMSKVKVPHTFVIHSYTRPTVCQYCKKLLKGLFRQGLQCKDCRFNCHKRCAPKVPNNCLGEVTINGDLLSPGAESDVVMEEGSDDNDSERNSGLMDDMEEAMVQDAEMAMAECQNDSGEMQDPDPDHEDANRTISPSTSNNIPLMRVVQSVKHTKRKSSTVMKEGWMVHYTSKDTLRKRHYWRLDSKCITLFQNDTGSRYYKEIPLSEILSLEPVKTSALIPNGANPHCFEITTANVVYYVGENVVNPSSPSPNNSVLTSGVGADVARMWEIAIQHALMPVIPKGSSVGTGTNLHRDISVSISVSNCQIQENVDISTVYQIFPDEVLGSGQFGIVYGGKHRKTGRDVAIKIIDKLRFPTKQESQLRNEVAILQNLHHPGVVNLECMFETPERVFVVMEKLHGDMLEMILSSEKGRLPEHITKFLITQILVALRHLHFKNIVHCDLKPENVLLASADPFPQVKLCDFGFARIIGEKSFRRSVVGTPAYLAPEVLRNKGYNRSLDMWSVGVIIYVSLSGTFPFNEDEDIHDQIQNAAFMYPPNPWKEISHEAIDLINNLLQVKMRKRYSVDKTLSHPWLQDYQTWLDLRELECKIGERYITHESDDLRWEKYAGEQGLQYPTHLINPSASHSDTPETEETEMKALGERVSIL
The assay can be described thus: in vitro radiometric kinase assay, 10-point curve; Lineweaver-Burk.

In a further assay the target is T5, PKD3 (Homo sapiens, UniProt O94806).
T5 construct: gene PRKD3; recombinant human PKD3
T5 sequence (O94806 1-890): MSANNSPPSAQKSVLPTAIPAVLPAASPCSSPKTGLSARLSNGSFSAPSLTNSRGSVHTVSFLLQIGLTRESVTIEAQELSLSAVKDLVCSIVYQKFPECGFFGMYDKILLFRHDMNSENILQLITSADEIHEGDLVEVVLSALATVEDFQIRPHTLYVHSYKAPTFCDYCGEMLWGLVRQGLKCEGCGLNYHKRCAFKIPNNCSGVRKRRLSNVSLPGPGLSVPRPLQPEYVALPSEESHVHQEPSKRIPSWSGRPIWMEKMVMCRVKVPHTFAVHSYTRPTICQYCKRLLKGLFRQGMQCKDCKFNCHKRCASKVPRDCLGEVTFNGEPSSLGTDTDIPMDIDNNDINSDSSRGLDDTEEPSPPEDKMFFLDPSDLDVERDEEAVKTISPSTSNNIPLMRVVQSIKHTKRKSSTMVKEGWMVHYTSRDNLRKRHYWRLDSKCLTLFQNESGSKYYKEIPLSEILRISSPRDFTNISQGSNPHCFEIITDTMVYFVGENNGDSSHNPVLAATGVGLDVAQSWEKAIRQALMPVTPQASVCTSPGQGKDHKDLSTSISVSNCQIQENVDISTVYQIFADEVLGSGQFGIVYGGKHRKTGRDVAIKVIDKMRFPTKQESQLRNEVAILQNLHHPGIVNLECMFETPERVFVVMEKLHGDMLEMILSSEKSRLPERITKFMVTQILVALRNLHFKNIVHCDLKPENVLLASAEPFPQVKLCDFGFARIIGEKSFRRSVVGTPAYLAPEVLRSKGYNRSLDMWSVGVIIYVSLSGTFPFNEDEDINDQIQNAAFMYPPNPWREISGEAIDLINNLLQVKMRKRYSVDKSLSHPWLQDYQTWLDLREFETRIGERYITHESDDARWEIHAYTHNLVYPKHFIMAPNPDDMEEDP
The assay can be described thus: in vitro radiometric kinase assay, 10-point curve.

T1 sequence (Q05655 whole entry): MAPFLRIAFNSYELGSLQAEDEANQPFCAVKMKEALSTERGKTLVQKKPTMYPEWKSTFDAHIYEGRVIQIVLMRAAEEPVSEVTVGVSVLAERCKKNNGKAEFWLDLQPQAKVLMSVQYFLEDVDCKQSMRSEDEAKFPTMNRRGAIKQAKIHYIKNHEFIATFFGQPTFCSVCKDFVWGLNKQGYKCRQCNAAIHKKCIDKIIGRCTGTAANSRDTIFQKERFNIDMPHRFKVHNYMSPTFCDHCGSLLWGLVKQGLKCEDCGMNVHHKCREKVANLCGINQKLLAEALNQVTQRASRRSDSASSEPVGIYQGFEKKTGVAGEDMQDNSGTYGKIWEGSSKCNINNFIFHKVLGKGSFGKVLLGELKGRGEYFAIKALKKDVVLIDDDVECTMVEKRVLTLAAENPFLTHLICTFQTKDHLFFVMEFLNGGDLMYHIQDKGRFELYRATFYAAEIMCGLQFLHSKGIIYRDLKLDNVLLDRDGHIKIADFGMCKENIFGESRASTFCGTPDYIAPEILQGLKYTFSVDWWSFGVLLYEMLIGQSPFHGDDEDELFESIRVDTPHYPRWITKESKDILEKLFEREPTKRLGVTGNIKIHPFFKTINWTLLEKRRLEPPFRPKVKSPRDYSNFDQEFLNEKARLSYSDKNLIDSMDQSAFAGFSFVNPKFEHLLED

As to `CN(C)CCCn1cc(C2=C(c3c[nH]c4ccccc34)C(=O)NC2=O)c2ccccc21` [GF109203X], the “in vitro radiometric PKC kinase assay” value on PKCδ is “GF109203X was tested as a positive control and it potently and concentration-dependently inhibited PKCα and PKCδ”; at PKCα it was “GF109203X was tested as a positive control and it potently and concentration-dependently inhibited PKCα and PKCδ”.
As for `Fc1ccc(Cl)cc1-c1nc(Nc2ccncc2)c2nccnc2n1` [SD-208], the IC50 was determined as 93.5 nM at PKD2, 107 nM on protein kinase D1 (PKD1) and 105 nM on PKD3.

For the origin of these results see publication PMC4352033, “SD-208, a Novel Protein Kinase D Inhibitor, Blocks Prostate Cancer Cell Proliferation and Tumor Growth In Vivo by Inducing G2/M Cell Cycle Arrest” (PLoS ONE, 2015).
